Test results as given in US8022075B2, “Diagnostic and remedy for disease caused by amyloid aggregation and/or deposition” (Fujifilm Ri Pharma Co., Ltd., priority 2005, dated 2011).
Like-named read-outs stand apart in the source and are kept apart here.

Legend:
[1] = target: T1, synthetic amyloid β (1-40) aggregates (Homo sapiens, UniProt P05067); experiment: Inhibition of binding of compound 23 to amyloid β protein aggregates; design: amyloid β (1-40) peptide hydrochloric acid salt; host or cells: chemically synthesised peptide; settings: binding of 125I-labeled compound 23 to A β 1-40 aggregates, room temperature, three hours
T1 sequence (P05067 672-711 limits assumed): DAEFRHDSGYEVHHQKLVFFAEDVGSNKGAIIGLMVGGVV
Procedure: Synthetic A β peptides in a solution form undergo spontaneous aggregation in a test tube, to thereby form aggregates having the same β-sheet structure as that of amyloid aggregates present in a brain suffering from Alzheimer's disease (hereinafter, such a brain is referred to as an “Alzheimer brain”).
After ultrasonication, the mixture was gently stirred at 37° C. for four days, to thereby produce synthetic amyloid β (1-40) aggregates.
Binding test was performed in the following manner. Firstly, PBS (500 μL) and 0.2% BSA/PBS solution (100 μL) were added to test tubes. […] Reaction was initiated by adding a synthetic amyloid β (1-40) aggregates solution (concentration: 500 nmol/L, adjusted by PBS) (200 μL) to each test tube.
These samples were incubated at room temperature for three hours, and each reaction mixture was filtered by means of a cell harvester (M-24R, product of Brandel) by use of a Whatman GF/B filter (product of Whatman). The filter was washed thrice with ice-cooled PBS solution (about 2 mL) containing 0.1-mmol/L ascorbic acid.
Activity values were calculated by means of a GraphPad Prism Ver.

[2] = standard substances of liposolubility; values reported in the literature; cited from earlier work
[3] = target: T1, synthetic amyloid β (1-40) aggregates; settings: for Bonding amount against amyloid β protein aggregate concentration: presence and absence of normal rat brain homogenate
Procedure: A brain tissue was removed from a normal rat, and a 5-fold amount of PBS was added to the tissue (wet state). A homogenate was produced from the mixture by use of a homogenizer. To test tubes, PBS (500 μL, in the presence of homogenate or 600 μL, in the absence of homogenate) was added. A rat brain homogenate (100 μL) was added under the presence condition of homogenate. […] Each (200 μL) of the Aβ aggregates solutions of twice-diluted series was added to each test tube, whereby reaction was initiated.
By subtracting a non-specific binding amount from the total binding amount and dividing the difference by the non-specific binding amount, an SN (Signal/Noise) ratio was calculated. The relationship between the SN ratio and amyloid β protein aggregate concentration was investigated (FIG. 2).

Amyloid β (1-40) peptide [4] = target: T2, Amyloid β (1-40) peptide (Homo sapiens, UniProt P05067); experiment: Inhibitory activity on formation of amyloid from amyloid β protein (thioflavin T method); type: biochemical; settings: amyloid β (1-40) 15 μmol/L, PBS(−), room temperature, one day; read-out: Aggregation inhibitory activity IC50 A β 1-40
T2 construct: amyloid β (1-40) peptide hydrochloric acid salt; host or cells: chemically synthesised peptide
T2 sequence (P05067 672-711 limits assumed): as above
Procedure: Amyloid β (1-40) peptide hydrochloric acid salt (product of PEPTIDE […], INC.) (15 μmol/L) and a test substance (1.6, 8, or 40 μmol/L) were incubated in PBS(−) at room temperature for one day. Thereafter, the amount of formed amyloid was measured through the thioflavin T method. […] As is clear from table 3, aggregation of amyloid β (1-40) can be prevented by the compound of the present invention.

[5] = human, in vivo; cited from earlier work
[6] = animal PET scanner; cited from earlier work
[7] = target: Whole protein of human Alzheimer lesion origin (temporal cortex) (Homo sapiens, UniProt P05067); experiment: Calculation of binding affinity by use of Alzheimer brain; settings: Alzheimer brain homogenate
Whole protein of human Alzheimer lesion origin (temporal cortex), sequence (P05067 672-713): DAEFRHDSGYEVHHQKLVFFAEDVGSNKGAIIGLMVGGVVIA
Procedure: Whole protein of human Alzheimer lesion origin (temporal cortex), a commercial product of Biochain (US), was employed.
An Alzheimer brain homogenate diluted with PBS was added to each test tube, to thereby initiate reaction.
4.00 (GraphPad Software, Inc.), to thereby calculate binding parameters (Kd, Bmax).

[8] = target: T3, amyloid β (1-40) aggregates formed in PBS and in MES (Homo sapiens, UniProt P05067); experiment: Correlation of β sheet amount in aggregates to binding amount of compound 23; settings: mixtures of PBS aggregates and MES aggregates (FIG. 4)
T3 construct: amyloid β (1-40) peptide hydrochloric acid salt; host or cells: chemically synthesised peptide
T3 sequence (P05067 672-711 limits assumed): as the sequence (P05067 672-711 limits assumed) above
From the text: In order to confirm that binding of compound 23 is promoted in accordance with the β-sheet structure amount, binding amount was compared among amyloid β aggregates having different β-sheet contents.
It has already reported by Wood et al. that amyloid β (1-40) aggregated in an acidic medium assumes large aggregates having a small β-sheet structure content, and that the structure is unchanged even in a neutral pH medium (Wood S. J., J. Mol. Biol. 256(5): 870-877). According to this report, synthetic amyloid β (1-40) aggregates were prepared in PBS in a manner similar to that of Test Example 2, and such aggregates were also prepared in MES (2-morpholinoethansulfonate) buffer in a similar manner.
These samples were further diluted with PBS to 40 μmol/L. Also a PBS aggregates sample and a MES aggregates sample were diluted with PBS to 40 μmol/L respectively.
The β-sheet content of aggregate mixture samples was determined through the thioflavin T method.
The binding amount of compound 23 to an aggregate mixture (aggregates formed in PBS and those formed in MES) was determined in a manner similar to that of Test Example 5 (binding to amyloid).

[9] = In vitro metabolism rate by use of liver microsomes, rat; type: in vitro ADME, Male Wistar Rat
Procedure: (§1) Liver microsomes (Pooled human Liver Microsomes, Male CD1 mouse, Male Wistar Rat), which is a commercial product of In Vitro Technologies, were employed.
(§2) Each of compound 23, compound 24, and [^125I]-IMPY was dissolved in Milli Q water, to thereby adjust the concentration to 11 μCi/mL (5 nmol/L).
(§3) To a mixture of 100 mM glucose 6-phosphate and […] NADPH solution, an equal volume of […] magnesium chloride was added. Glucose 6-phosphate dehydrogenase was employed at a final concentration of 10 unit/mL. These components were reconstituted upon use.
(§4) Method: To each of the glass test tubes, […] EDTA/0.33M potassium phosphate buffer (150 μL), Milli Q water (200 μL), 0.005 or 0.5 mg protein/mL microsome suspension (50 μL), and a test substance solution (50 μL) were added. The mixture was preliminarily incubated at 37° C. for two minutes. The above-prepared NADPH-generating system (50 μL) was added, to thereby initiate reaction. At an arbitrary point of time, an equal volume of acetonitrile was added, to thereby terminate the reaction. The reaction mixture (50 μL) was sampled into a glass tube for determining the metabolism amount, and saturated ascorbic acid ethanol solution (25 μL) was added thereto. The sample was developed by means of a reverse phase TLC (Whatman KC18F) with 80% methanol. The TLC was brought into contact with an imaging plate, and radioactivity was detected by means of BAS-1800 (product of Fuji Film Co., Ltd.). The metabolism rate was calculated through analysis by means of GraphPad Prism Ver. 4.00 (GraphPad Software, Inc.).

[10] = In vitro metabolism rate by use of liver microsomes, human; type: in vitro ADME
Procedure: as §1, §2, §3, §4

[11] = In vitro metabolism rate by use of liver microsomes, mouse; type: in vitro ADME, Male CD1 mouse
Procedure: as §1, §2, §3, §4

[12] = Distribution in rat body (radioactivity in the brain); type: in vivo, Wistar male rats; settings: caudal vein
Procedure: Wistar male rats (purchased from Japan SLC, Inc.) were conditioned for seven days, maintaining water and chow (commercial solid chow: F-2, product of Funabashi Farm) ad libitum, and the non-fasting rats were employed in the experiment (8-week-old at experiment).
Each of compound 23, compound 24, and [^125I]-IMPY was dissolved in a solution containing 40 mM ascorbic acid and 0.1% Tween80, to thereby adjust the concentration to 100 μCi/200 μL. Each sample was administered to each rat through the caudal vein under non-anesthetization. […] The brain was cut into the left and right parts, and each part was weighed. The right brain was placed in a vial, and radioactivity was measured by means of a gamma counter. The radioactivity relative to the administration amount was calculated. Specifically, radioactivity of the tissue and that divided by the tissue weight were calculated as % I.D. and % I.D./g-tissue weight, respectively.

Amyloid β (1-40) peptide [13] = target: T2, Amyloid β (1-40) peptide; experiment: Binding of compound 24 to amyloid β (1-40) aggregated in PBS or dissolved in purified water; settings: for Specific binding radioactivity: amyloid β 50 nmol/L
Procedure: Separately, amyloid β (1-40) peptide HCl salt was dissolved in purified water, to thereby prepare a 100-μmol/L amyloid β (1-40) solution. A CD spectrum of each sample solution (twice diluted) was measured at room temperature (about 25° C.) in a wavelength range of 190 to 250 nm. PBS or purified water was measured as a blank. After measurement, a blank value was subtracted from a CD value of each sample, to thereby correct the base line. From the thus-corrected CD values, secondary structure analysis was performed by means of SELCON3.
Subsequently, binding ability of the compound of the invention to amyloid β (1-40) peptide dissolved in purified water or aggregated in PBS was determined in a manner similar to that employed in Test Example 3. However, a ^125I-labeled compound 24 was employed, and no rat bran homogenate was included. The employed amyloid β concentration was 50 nmol/L at reaction.

[14] = read-out: Inhibitory activity (n = 3) IC50 Mean ± S.D.

With `Nc1c(/N=N/c2ccc(-c3ccc(/N=N/c4cc(S(=O)(=O)O)c5ccccc5c4N)cc3)cc2)cc(S(=O)(=O)O)c2ccccc12` [Congo Red, reference compound] the IC50 [1] was greater than 5000 nM.

In the case of `c1ccc(-c2ccc(C(c3ccccc3)n3ccnc3)cc2)cc1` (stereo not drawn) [Bifonazole], the LogD7.4 [2] is given as 4.77.

For `Clc1cccc(Cl)c1N=C1NCCN1` [Clonidine], the LogD7.4 [2] is listed as 0.62.

In the case of `C[C@]12CC[C@H]3[C@@H](CCC4=CC(=O)CC[C@@]43C)[C@@H]1CC[C@@H]2O` [Teststeron], the LogD7.4 [2] is listed as 3.29.

With `CN(C)c1ccc(-c2cn3cc([123I])ccc3n2)cc1` [^123I-IMPY, [^123I]6-iodo-2-(4′-dimethylamino-)phenyl-imidazo[1,2-a]pyridine, reference compound] the “Bonding amount against amyloid β protein aggregate concentration” value [3] was “increase in bonding amount in response to the amyloid β protein aggregate concentration”.

For `CN/C(=N/CCSCc1nc[nH]c1C)NC#N` [Cimetidine], the LogD7.4 [2] is listed as 0.35.

In the case of `CC(=C(C#N)C#N)c1ccc2cc(N(C)CCF)ccc2c1` [FDDNP, reference compound], the IC50 [1, 14] is reported as 1050 ± 48.8 nM.

For `CC(=O)Nc1ccc(O)cc1` [Acetaminophen], the LogD7.4 [2] is listed as 0.51.

With “5-[4-(6-Iodoimidazo[1,2-a]pyridin-2-yl)phenyl]-1,3-oxazole [Example 1]” the IC50 [1, 14] was 1.23 ± 0.0842 nM and the IC50 (Amyloid β (1-40) peptide [4]) was 29400 nM.

For `Oc1ncnc2[nH]ncc12` [Allopurinol], the LogD7.4 [2] is given as −0.44.

In the case of `[11CH3]Nc1ccc(-c2nc3ccc(O)cc3s2)cc1` [^11C-PIB], the “Difference in retention between AD patient groups” value [5] is given as “at most about two-fold” and the “Retention time, PS1/APP mice against normal mice” value [6] is given as “no difference is observed in retention time”.

For `[125I]c1ccc2nc(-c3ccc(-c4cnco4)cc3)cn2c1` [Example 23, [^125I]5-[4-(6-Iodoimidazo[1,2-a]pyridin-2-yl)phenyl]-1,3-oxazole], the Bmax [7] was 1.66 pmol/mg protein, the “Specific binding amount against β-sheet content of aggregate mixture” value [8] was “promoted in accordance with an increase in β-sheet content” and the “Rate of metabolism by liver microsomes” value [9] was 0.632 ± 0.420 pmol/min/mg protein. For the same compound, the “Rate of metabolism by liver microsomes” value [10] was 0.944 ± 0.265 pmol/min/mg protein, the “Rate of metabolism by liver microsomes” value [11] was 0.480 ± 0.139 pmol/min/mg protein and the “Radioactivity in the rat brain Mean ± SD” value ([12]; 2 min after administration) was 1.268 ± 0.166 % I.D./g. For the same compound, the “Radioactivity in the rat brain Mean ± SD” value ([12]; 5 min after administration) was 1.124 ± 0.032 % I.D./g, the “Radioactivity in the rat brain Mean ± SD” value ([12]; 15 min after administration) was 0.584 ± 0.077 % I.D./g and the “Radioactivity in the rat brain Mean ± SD” value ([12]; 30 min after administration) was 0.273 ± 0.015 % I.D./g. The “Radioactivity in the rat brain Mean ± SD” value ([12]; 60 min after administration) was 0.139 ± 0.006 % I.D./g and the “Radioactivity in the rat brain Mean ± SD” value ([12]; 120 min after administration) was 0.083 ± 0.002 % I.D./g.

For “[^125I]6-Iodo-2-[4-(1H-3-pyrazolyl)phenyl]imidazo[1,2-a]pyridine [Example 24]”, the Bmax [7] was 1.59 pmol/mg protein, the Kd ([7]; 125I-labeled test compound 0.5 nmol/L) was 4.05 nM and the “Rate of metabolism by liver microsomes” value [9] was 0.193 ± 0.058 pmol/min/mg protein. The Specific binding radioactivity (Amyloid β (1-40) peptide [13]; Solution of amyloid β (1-40) dissolved in purified water) was 6300.3 cpm, the Specific binding radioactivity (Amyloid β (1-40) peptide [13]; Suspension of amyloid β (1-40) aggregated in PBS) was 125504.4 cpm and the “Specific binding to aggregates (suspension) relative to dissolved amyloid β (1-40) (solution)” value (Amyloid β (1-40) peptide [13]; ratio suspension in PBS / solution in purified water) was “about 20 times”. The “Rate of metabolism by liver microsomes” value [10] was 0.140 ± 0.057 pmol/min/mg protein, the “Rate of metabolism by liver microsomes” value [11] was 0.229 ± 0.061 pmol/min/mg protein and the “Radioactivity in the rat brain Mean ± SD” value ([12]; 2 min after administration) was 0.760 ± 0.036 % I.D./g. For the same compound, the “Radioactivity in the rat brain Mean ± SD” value ([12]; 5 min after administration) was 0.656 ± 0.026 % I.D./g, the “Radioactivity in the rat brain Mean ± SD” value ([12]; 15 min after administration) was 0.373 ± 0.047 % I.D./g and the “Radioactivity in the rat brain Mean ± SD” value ([12]; 30 min after administration) was 0.176 ± 0.009 % I.D./g. For the same compound, the “Radioactivity in the rat brain Mean ± SD” value ([12]; 60 min after administration) was 0.053 ± 0.003 % I.D./g and the “Radioactivity in the rat brain Mean ± SD” value ([12]; 120 min after administration) was 0.015 ± 0.002 % I.D./g.

For `Ic1ccc2nc(-c3ccc(-c4cc[nH]n4)cc3)cn2c1` [Example 3, 6-Iodo-2-[4-(1H-3-pyrazolyl)phenyl]imidazo[1,2-a]pyridine], the IC50 [1] was 9.72 ± 1.44 nM and the IC50 (Amyloid β (1-40) peptide [4]) was 22300 nM.

In the case of `[123I]c1ccc2nc(-c3ccc(-c4cc[nH]n4)cc3)cn2c1` [^123I-labeled product of compound 3, [^123I]6-Iodo-2-[4-(1H-3-pyrazolyl)phenyl]imidazo[1,2-a]pyridine], the “SN (Signal/Noise) ratio” value ([3]; compared with 123I-IMPY, presence and absence of normal rat brain homogenate (FIG. 2)) is reported as “higher SN ratio” and the “Bonding amount against amyloid β protein aggregate concentration” value [3] is reported as “increase in bonding amount in response to the amyloid β protein aggregate concentration”.
